{
  "source": "paper PMC8308585",
  "about": "“Design and Synthesis of Novel Thiazolo[5,4-d]pyrimidine Derivatives with High Affinity for Both the Adenosine A1 and A2A Receptors, and Efficacy in Animal Models of Depression” (Pharmaceuticals, 2021)",
  "key": {"human A2A AR": {"target": "T1, human A2A AR (Homo sapiens, UniProt P29274)", "T1 construct": "expressed in transfected cells; host or cells: CHO cells", "T1 sequence (P29274 whole entry)": "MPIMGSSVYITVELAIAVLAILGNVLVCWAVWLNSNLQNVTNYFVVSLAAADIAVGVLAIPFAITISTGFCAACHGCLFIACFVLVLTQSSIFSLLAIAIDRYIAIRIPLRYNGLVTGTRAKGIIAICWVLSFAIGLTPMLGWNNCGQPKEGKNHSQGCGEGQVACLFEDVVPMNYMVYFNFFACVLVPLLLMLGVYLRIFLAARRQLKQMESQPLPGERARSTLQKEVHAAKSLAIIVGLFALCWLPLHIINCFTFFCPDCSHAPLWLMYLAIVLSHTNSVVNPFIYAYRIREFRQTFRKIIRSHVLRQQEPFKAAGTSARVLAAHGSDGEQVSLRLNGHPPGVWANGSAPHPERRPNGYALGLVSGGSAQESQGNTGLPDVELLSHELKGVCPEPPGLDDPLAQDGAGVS", "experiment": "Radioligand binding, displacement of [3H]-NECA at hA2A AR in CHO cells", "method": "(§2) CHO cells, stably expressing hARs, were grown adherently and maintained in Dulbecco’s modified Eagle’s medium (DMEM) with nutrient mixture F12 supplemented with 10% fetal bovine serum (FBS), penicillin (100 µg/mL), streptomycin (100 µg/mL), sodium pyruvate (1 mM), and geneticin (0.1 mg/mL).\n(§3) Briefly, cells were homogenized in cold lysis buffer (5 mM Tris HCl, 2 mM EDTA, pH 7.4), centrifuged at low speed spin for 10 min, and subsequently, the supernatant was spun at 37,000 rpm. Membrane pellet was resuspended in the specific buffer and stored at −80 °C."}, "mice [1]": {"test_system": "mice", "experiment": "Tail suspension test", "type": "in vivo", "details": "mouse TST, single dose, mean ± SEM of 10 mice, vehicle 99.0 ± 6.8", "protocol": "(§1) To execute the tests, mice were divided into groups, each of which consisted of 10 animals. The tests were performed after a single p.o. administration of compound 18 at different dosages (10 mg Kg^−1 and 30 mg Kg^−1). Amitriptyline (15 mg Kg^−1) was used as the reference drug. Compounds were acutely administrated 26 min before the beginning of the experiment. In the FST (Table 4), the duration of immobility was recorded during the last 4 min of the 6 min test.\nA decrease in the duration of immobility is indicative of an antidepressant-like effect. […] Accordingly, a similar activity was shown in the tail suspension test (Table 5) where the immobility time was measured in the first 2 min, when animals react to the inescapable stress, and in the last 4 min of the test, when the behavioral despair is established. Immobility was defined as the absence of any limb or body movements, except those caused by respiration. A reduction in the duration of the immobility time is indicative of an antidepressant-like effect.\nMale CD-1 albino mice (22–25 g; Envigo, Varese, Italy) were housed in CeSAL (Centro Stabulazione Animali da Laboratorio, University of Florence, Florence, Italy) and used at least one week after their arrival. Animals were housed in 26 cm × 41 cm cages (12 mice each) and fed with a standard laboratory diet and tap water ad libitum. They were kept at 23 ± 1 °C with a 12 h light/dark cycle, light at 7 a.m. […]\nA piece of tape was adhered to the upper middle of the tail of each animal, creating a flap with the overlap of tape. […] The duration of the test was 6 min and the immobility time was measured in the first 2 min, when animals react to the inescapable stress, and in the last 4 min of the test, when the behavioral despair is established. […]\nBehavioral tests were performed by visual observation by researchers blinded to the treatments. Results were expressed as means ± SEM, variance was analyzed by ANOVA. […] Data were analyzed using the “Origin 8.1” software."}, "hA3 AR": {"target": "T2, hA3 AR (Homo sapiens, UniProt P0DMS8)", "T2 construct": "expressed in transfected cells; host or cells: CHO cells", "T2 sequence (P0DMS8 1-318)": "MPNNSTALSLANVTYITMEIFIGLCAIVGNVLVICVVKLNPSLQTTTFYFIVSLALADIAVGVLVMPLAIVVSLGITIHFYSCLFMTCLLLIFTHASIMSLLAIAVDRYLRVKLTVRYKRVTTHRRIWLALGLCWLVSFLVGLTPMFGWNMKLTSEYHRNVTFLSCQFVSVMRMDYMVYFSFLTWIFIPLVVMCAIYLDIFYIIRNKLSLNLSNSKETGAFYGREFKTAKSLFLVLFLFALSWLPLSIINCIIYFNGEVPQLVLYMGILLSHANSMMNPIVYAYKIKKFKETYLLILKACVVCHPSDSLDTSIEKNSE", "experiment": "Radioligand binding, displacement of [3H]-HEMADO at hA3 AR in CHO cells", "details": "displacement of specific [3H]-HEMADO binding, mean ± SEM", "method": "as §2, §3"}, "mice [2]": {"test_system": "mice", "experiment": "Forced swimming test", "type": "in vivo, mouse", "details": "for Immobility Time: mouse FST, single dose 26 min before test, last 4 min of 6 min, mean ± SEM of 10 mice, vehicle 193.7 ± 8.9", "protocol": "as §1\nMale CD-1 albino mice (22–25 g; Envigo, Varese, Italy) were housed in CeSAL (Centro Stabulazione Animali da Laboratorio, University of Florence, Florence, Italy) and used at least one week after their arrival. Animals were housed in 26 cm × 41 cm cages (12 mice each) and fed with a standard laboratory diet and tap water ad libitum. They were kept at 23 ± 1 °C with a 12 h light/dark cycle, light at 7 a.m. Compound 18 was administered per o.s. whereas amitriptyline was by a s.c. route following the most widely used approach reported in the literature.\nMice were individually placed into glass cylinders (height: 25 cm, diameter: 10 cm) containing 12 cm of water maintained at 22–23 °C for 6 min. Immobility was considered the animal floated in the water, in an upright position, and made only small movements to keep its head above water. The immobility time was recorded during the last 4-min of the 6-min test. A decrease in the duration of immobility is indicative of an antidepressant-like effect.\nBehavioral tests were performed by visual observation by researchers blinded to the treatments. Results were expressed as means ± SEM, variance was analyzed by ANOVA. A Bonferroni’s significant difference procedure was used as post-hoc comparison. p values of less than 0.05 and 0.01 were considered significant. Data were analyzed using the “Origin 8.1” software."}, "hA2B AR": {"target": "T3, hA2B AR (Homo sapiens, UniProt P29275)", "T3 construct": "expressed in transfected cells; host or cells: CHO cells", "T3 sequence (P29275 1-332)": "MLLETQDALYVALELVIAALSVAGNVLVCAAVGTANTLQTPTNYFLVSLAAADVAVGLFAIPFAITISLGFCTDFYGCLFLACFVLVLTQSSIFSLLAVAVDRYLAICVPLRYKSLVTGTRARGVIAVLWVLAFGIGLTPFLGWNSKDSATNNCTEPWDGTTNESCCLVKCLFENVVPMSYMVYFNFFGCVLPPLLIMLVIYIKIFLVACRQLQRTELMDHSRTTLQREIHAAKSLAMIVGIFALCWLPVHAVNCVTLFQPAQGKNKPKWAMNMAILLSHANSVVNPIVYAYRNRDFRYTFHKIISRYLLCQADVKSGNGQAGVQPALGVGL", "experiment": "Inhibition of NECA-stimulated adenylyl cyclase activity (cAMP) in CHO cells expressing hA2B AR", "type": "cell-based", "details": "mean ± SEM", "protocol": "Compounds 1–19 were evaluated for their binding affinity at hA1, hA2A, and hA3 ARs, stably transfected in Chinese hamster ovary (CHO) cells. […].\nThe binding affinity of the novel compounds was evaluated using radioligand competition experiments in CHO cells stably transfected with hA1 AR, hA2A AR, and hA3 AR subtypes. […]; The potency at hA2B AR, expressed on CHO cells, was determined by inhibition of NECA-stimulated adenylyl cyclase activity. […]\nBinding data and concentration–response curves were fitted by a nonlinear regression with the Prism program (GraphPAD Prism 7 Software, San Diego, CA, USA). Each concentration was tested 3–5 times in duplicate and the Ki or IC50 (the concentration of antagonists that produces 50% inhibition of the agonist effect) values are given as the mean ± standard error (S.E.)."}},
  "note": "Where two headings read alike, the source gives them in different places.",
  "data": [
    {"smiles": "Nc1nc(-c2ccco2)nc2sc(Cc3ccccc3F)nc12", "note": "[compound 18, 2-(2-Fluorobenzyl)-5-(furan-2-yl)thiazolo[5,4-d]pyrimidin-7-amine]", "values": [
      {"measurement": "Ki", "setting": "human A2A AR; displacement of specific [3H]-NECA binding, CHO cells, mean ± SEM, read-out: hA2A Ki", "value": "0.06 ± 0.02", "unit": "nM"},
      {"measurement": "Ki", "setting": "human A2A AR; hA2A AR, as listed in Table 3, read-out: pKi A2A (converted)", "value": 0.0646, "unit": "nM"},
      {"measurement": "Immobility Time", "setting": "mice [1]; 10 mg kg^−1 p.o.", "value": "88.9 ± 10.16", "unit": "s"},
      {"measurement": "Immobility Time", "setting": "mice [1]; 30 mg kg^−1 p.o.", "value": "56.5 ± 6.1", "unit": "s"},
      {"measurement": "Ki", "setting": "hA3 AR", "value": "93.1 ± 2.8", "unit": "nM"},
      {"measurement": "Immobility Time", "setting": "mice [2]; 10 mg kg^−1 p.o.", "value": "184.7 ± 5.6", "unit": "s"},
      {"measurement": "Immobility Time", "setting": "mice [2]; 30 mg kg^−1 p.o.", "value": "143.5 ± 9.1", "unit": "s"},
      {"measurement": "Antidepressant-like effect in FST (in words)", "setting": "mice [2]; mouse, 10 and 30 mg Kg^−1 p.o., vs amitriptyline 15 mg Kg^−1", "value": "dose-dependently induced an antidepressant-like effect comparable to that induced by the clinically used drug amitriptyline"},
      {"measurement": "IC50", "setting": "hA2B AR", "value": "384 ± 55", "unit": "nM"}
    ]}
  ]
}
